Test system: C. Albicans
Assay: Activity against fungi (C. albicans)
Assay type: cell-based
Conditions: Table 10
From the text: Table 10 presents results of activity assays for selected compounds against fungi, as exemplified by activity against c. albicans according to assays known in the art.

Row | SMILES | Activity against C. Albicans [µM]
1 | CNCCNC(CCN)C(=O)CC1C(C(=O)N2CCNCC2)OC(n2ccc(N)nc2=O)C(O)C1O (stereo not drawn) [compound 1] | 1 to 3
2 | CNCC(=O)NC(CCN)C(=O)CC1C(C(=O)N2CCNCC2)OC(n2ccc(NCCCN3CCN(C)CC3)nc2=O)C(O)C1O (stereo not drawn) [compound 2] | 3 to 6
3 | CNCC(=O)NC(CCN)C(=O)NC1C(C(=O)N2CCNCC2)OC(n2ccc(N)nc2=O)C(O)C1O (stereo not drawn) [compound 5] | 1 to 3

Source: patent publication US6933288B2, “Pyranosyl cytosines: pharmaceutical formulations and methods” (ISIS Pharmaceuticals, Inc., priority 2002, dated 2005)
